For data set [1], the system named is Aspergillus niger. Put plainly: Aspergillus pneumonia in immunodeficient mice, aerosol treatment, microbial contamination of the lungs. Format: in vivo, white mongrel mice. Particulars: for Number of colonies (in different dilutions), 10^−2: dilution 10^−2, Saburo medium. The protocol: The studies were conducted on white mongrel mice (females, 6-8 weeks) in Rappolovo (Leningrad region), the quarantine period was 2 weeks. To reproduce aspergillus pneumonia of the mouse, in order to create an immunodeficiency, a cyclophosphamide solution (150 mg/kg) was injected once intraperitoneally. Three days later, the mice were injected hydrocortisone (250 mg/kg), intraperitoneally, once. One day after the hydrocortisone administration the mice were infected with a suspension of Aspergillus niger (approximately 3×10^7 cell/ml) intranasally, under ether anesthesia. On the 5th day after infection, 5 animals from each group were taken to study microbial contamination of the lungs (euthanasia in rodents was performed with an overdose of ether). From the lung tissue, homogenates were prepared in which the titer of Aspergillus genus fungi was determined. Observation over the remaining mice was carried out within 14 days after infection for mortality accounting. The test solutions were injected in an aerosol chamber. In the course of the experiment, the following groups of animals were formed: • 1—spray control (K), 3 identical groups (K1, K2, K3). The animals infected with Aspergillus and receiving an aerosol of isotonic sodium chloride solution. • 2—The associate of 5-[3,5-dichloro-2-hydroxybenzylidene)amino]-4-hydroxy-1H-pyrimidin-2-one salt with 1,2,3,4,5-pentahydroxy-6-methylaminohexane, 3 identical groups (E1-3). The animals infected with Aspergillus and receiving an aerosol of 0.1% of the preparation under study. • 3. Aqueous solution of substance I-1 • 4. Aqueous solution of substance I-2 • 5. Aqueous solution of substance I-3 • 6. Aqueous solution of substance I-4 • 7. Aqueous solution of substance I-5 • 8. Aqueous solution of substance I-6 • 9. Aqueous solution of substance I-7. The animals were placed into aerosol chambers (12 l) for a period of 30 minutes, during which 500 ml of air passed through the lungs. As an aerosol generator, an ultrasonic nebulizer OMRON U1 (Japan) was used. To maintain a constant concentration of the aerosol of the preparation in the chamber, a vortex pneumatic generator in pulsed spraying mode was used to obtain a stable aerosol with a particle size of 3 m. The animals were placed into immobilization containers and exposed to the obtained aerosol for 30 minutes once a day for 3 days, starting from the first day after the infection. From the samples of homogenized lung tissues, a number of successive dilutions were prepared, followed by seeding on to Saburo medium.

Data set [2] concerns Candida albicans. Description: Candidamycosis of mammals: intradermal Candida albicans ulceration in rabbits, topical treatment. Particulars: for Complete cure by day 7: scarring of the lesion by day 7, 0.1% oil (olive oil) solution applied twice a day for 7 days. In kind it is in vivo. The protocol:
Rabbits were inoculated intradermally with a suspension of a 48-hour Candida albicans culture at a dose of 10,000 fungal cells in […] of a 0.9% sodium chloride solution. […] For the study, a 0.1% oil (olive oil) solution of the 5-[3,5-dichloro-2-hydroxybenzylidene)amino]-4-hydroxy-1H-pyrimidin-2-one salt associate with 1,2,3,4,5-pentahydroxy-6-methylaminohexane and substance I-3 were prepared. Sterile water was used as the control substance. The duration of treatment was 7 days, starting from the 1st day after ulceration. The preparations were applied with a cotton swab twice a day—in the morning and in the evening. The criterion for mycological cure was the absence of the yeast and mycelial forms of Candida, and the criterion for complete cure was the scarring of the lesion by day 7.

The conditions of data set [3]: cited from earlier work.
The test system of data set [4] is Leveillula taurica. Description: Treatment of powdery mildew on begonia tuberosa by spray. In kind it is in vivo, Begonia tuberosa hybridum. The protocol:
The study was carried out on begonia tuberosa (Begonia tuberosa hybridum), infected with powdery mildew. Powdery mildew affects many plants, including trees and shrubs. Powdery mildew affects chrysanthemums, begonias, and roses; it is manifested in appearance of a white, sometimes darkening spew on green parts of plants. The plant disease is transmitted by spores through the air. The test plants were infected with spores of the fungus (Leveillula taurica) and kept until a white spew appeared on the leaves. Three leaves on each plant were infected. After appearance of the spew, the plants of the control group (3 plants) were isolated from the 3 plants treated with a spray, which is an aqueous solution of substance I-3. The treatment was performed once in a day for 3 and 7 days. After completion of the treatment, the observation over the plants was continued for another 3 weeks. During the observation, an increase in the amount of spew representing the fungal mycelium was registered in the control plants and the number of affected leaves increased, on average, to 7-8, while the spew covered the stems of the plants as well.

Setting [5] is: lung homogenate, 5th day after infection, aerosol 30 minutes once a day for 3 days.

For `Cc1[nH]c(=O)[nH]c(=O)c1N=Cc1ccc([N+](=O)[O-])cc1.[Na]` [Substance I-1, 2,4-dioxo-5-(4-nitrobenzylidene)amino-6-methyl-1,3-pyrimidine sodium salt], the “Number of colonies (in different dilutions), 10^−2” value in data set [1] (setting [5]) was determined as 5 col.
Turning to `CNCC(O)C(O)C(O)C(O)CO.O=c1nc(O)c(N=Cc2cc(Cl)cc(Cl)c2O)c[nH]1` [associate of 5-[3,5-dichloro-2-hydroxybenzylidene)amino]-4-hydroxy-1H-pyrimidin-2-one salt with 1,2,3,4,5-pentahydroxy-6-methylaminohexane, reference compound], the “Complete cure by day 7” value in data set [2] was “Absent”. Further, in data set [3] (oil solutions), the “solubility in oil solutions” value is given as “up to 0.3%”. The solubility in water in data set [3] (water) is reported as no more than 0.4%. For the same molecule, the “Number of colonies (in different dilutions), 10^−2” value in data set [1] (setting [5]) is on record as 12 col. For the same molecule, the “Number of colonies (in different dilutions), 10^−4” value in data set [1] (lung homogenate, 5th day after infection, dilution 10^−4, Saburo medium, aerosol 30 minutes once a day for 3 days) is recorded as 2 col.
With `Cc1[nH]c(=O)[nH]c(=O)c1N=Cc1cc(Cl)cc(Cl)c1O.[Na]` [Substance I-3, 2,4-dioxo-5-(2-hydroxy-3,5-dichlorobenzylidene) amino-6-methyl-1,3-pyrimidine sodium salt], the “Presence of mycelium of fungi in the smear, 5 day” value in data set [2] (5 day, 0.1% oil (olive oil) solution applied twice a day) is reported as “no growth”. The “overall effect of treatment” value in data set [2] (conclusion from Table 3) is reported as “positive effect is achieved”. In data set [2], the “Complete cure by day 7” value is recorded as “Achieved”. The “increase or spread of the fungus to other parts of the plant” value in data set [4] (aqueous solution spray once in a day for 3 and 7 days, observation for another 3 weeks) was “no increase or spread of the fungus to other parts of the plant was recorded”. The “growth of the fungi when flushed from the leaf and plated on a nutrient medium” value in data set [4] (flush from treated leaf, nutrient medium) was “no growth of the fungi was recorded”. Moreover, the “overall antifungal effectiveness among tested agents” value in data set [1] (conclusion from Table 2) is reported as “most effective antifungal agent”. Also, in data set [1] (setting [5]), the “Number of colonies (in different dilutions), 10^−2” value is 2 col.

(Values after patent publication US10624892B2, “Agent against fungal infections” (priority 2015, dated 2020).)
